Data on one compound can be found in patent US20110039901A1, “PROCESS FOR PREPARING A CRYSTALLINE FORM COMPOUND OF 3-BENZYL-2-METHYL-2,3,3a,4,5,6,7,7a-OCTAHYDROBENZO[d]ISOXAZOL-4-ONE” (Abiogen Pharma S.P.A., priority 2008, published 2011).

The nature of this data set: stability of the hydrochloride salt at elevated temperature. To be noted: at temperatures above 30° C. In kind it is physicochemical.

With `CN1OC2CCCC(=O)C2C1Cc1ccccc1.Cl` (stereo not shown) [hydrochloride salt of BTG 1640], the stability at temperature entry is listed as “unstable”.
